# According to US8008280B2, “Betulinol derivatives as anti-HIV agents” (priority 2004, dated 2011):
# Like-named read-outs stand apart in the source and are kept apart here.
# Key:
# [1] = test system: 174XCEM; test: Effect on cell viability, trypan blue dye exclusion; conditions: trypan blue dye exclusion at four days and seven days
# Experimental: Human T-B hybridoma cell line 174XCEM was exposed to a low multiplicity of infection (“MOI”) (MOI=1.0) of stock HIV-1 IIIB isolate for 2 hours at 37° C., washed ×3 with phosphate buffered saline (“PBS”), then plated at 250,000 cells/well in the presence of various agents, shown in Table 10. Dimethyl sulfoxide (“DMSO”) buffer was used as a […] control. A commercially available synthetic peptide, thrombospondin peptide (“TSP”), known as having HIV-1 inhibitory activity, was used as an “inhibitory activity” control. Two HIV isolates were used, a patient isolate (“child HIV”), and the standard CXCR4 co-receptor utilizing isolate IIIB.
# The cell samples were assessed by trypan blue dye exclusion at four days and seven days.
# [2] = test system: HIV-1 IIIB isolate; test: HIV-1 inhibitory effect, p24 antigen capture ELISA, acutely infected 174XCEM cells; format: cell-based; conditions: 1 μg/ml (in DMSO); 4 days culture
# [3] = test system: AZT-resistant strain; test: Anti-HIV activity against AZT-resistant patient isolates in MT-2 cells; format: cell-based
# Source text: These isolates were used to infect MT-2 cells in vitro.
# [4] = Solubility in DMSO diluted with culture medium (GC, standard solubility curve); format: physicochemical
# Experimental: The residue was dissolved in chloroform analyzed on GC.
# Ethyl ether was then evaporated.
# [5] = In vivo tolerability in mice with prostate cancer cell xenografts; conditions: final concentration of 22% ethanol and 2×10−3 mol per liter of betulonic acid
# [6] = test system: another HIV-1 isolate; test: Effect on 174XCEM cells chronically infected with another HIV-1 isolate; format: cell-based; conditions: chronically infected 174XCEM cells; betulin diacetate single dose 1 μg/ml
# Experimental: Agents were also evaluated for an effect on 174XCEM cells chronically infected with another HIV-1 isolate.
# [7] = test system: carcinoma cell line CO-115 of the large intestine; conditions: carcinoma cell line CO-115 (Ukkonen et al.); cited from earlier work
# [8] = Solubility of betulonic acid in human serum; format: physicochemical; conditions: 1.34 mg in 31 μL neat ethanol diluted with 700 μL human serum; 4.2% final ethanol
# [9] = Solubilization in PBS containing human γ-globulin, human albumin and ethanol; format: physicochemical; conditions: 1 × 10^−3 mol/L
# [10] = test system: cells; conditions: cited from earlier work
# [11] = 1.0 mg in culture medium containing 20% DMSO
smiles,measurement,setting,value
"C=C(C)[C@@H]1CC[C@]2(CO)CC[C@]3(C)[C@H](CC[C@@H]4[C@@]5(C)CC[C@H](OC(C)=O)C(C)(C)[C@@H]5CC[C@]43C)[C@@H]12 [3-acetoxy betulin, 3-Acetoxy Betulin]",effect on total cell number or cell viability,[1],no effect on total cell number or cell viability
same,"anti-HIV-1 activity (HIV-1 gag (p24) antigen, OD units, FIG. 6)",[2],anti-HIV-1 activity superior to that previously disclosed in the art for other betulinol derivatives
"C=C(C)[C@@H]1CC[C@]2(COC(C)=O)CC[C@]3(C)[C@H](CC[C@@H]4[C@@]5(C)CC[C@H](O)C(C)(C)[C@@H]5CC[C@]43C)[C@@H]12 [28-acetoxy betulin, 28-Acetoxy Betulin]",effect on total cell number or cell viability,[1],no effect on total cell number or cell viability
same,"anti-HIV-1 activity (HIV-1 gag (p24) antigen, OD units, FIG. 6)",[2],anti-HIV-1 activity superior to that previously disclosed in the art for other betulinol derivatives
"Cc1cn([C@H]2C[C@H](N=[N+]=[N-])[C@@H](CO)O2)c(=O)[nH]c1=O [AZT, 3′-azido-3′-deoxythymidine, reference compound]","inhibition in the HIV infection, AZT-resistant strain",[3]; day 5 (FIG. 14),ineffective
C=C(C)C1CCC2(C(=O)NCCCCC(NC(=O)C(CCCCNC(=O)C34CCC(C(=C)C)C3[C@@H]3CC[C@H]5[C@]6(C)CCC(=O)C(C)(C)[C@H]6CC[C@]5(C)[C@@]3(C)CC4)NC(=O)OC(C)(C)C)C(=O)O)CC[C@]3(C)[C@H](CC[C@@H]4[C@@]5(C)CCC(=O)C(C)(C)[C@@H]5CC[C@]43C)C12 (stereo partly shown) [Boc-Dimer],Concentration of drug (mg/mL),[4]; [11],0.6 mg/mL
same,Concentration of drug (mol/L),[4]; [11],0.0005 mol/L
same,Con. in culture medium containing 20% DMSO,[4]; calculated (nominal) concentration,0.0005 mol/L
C=C(C)C1CCC2(C(=O)NCCCCC(NC(=O)OC(C)(C)C)C(=O)O)CC[C@]3(C)[C@H](CC[C@@H]4[C@@]5(C)CCC(=O)C(C)(C)[C@@H]5CC[C@]43C)C12 (stereo partly shown) [Boc-Monomer],Con. in culture medium containing 20% DMSO,[4],0.001 mol/L
same,tolerability,[5],well tolerated
"C=C(C)[C@@H]1CC[C@]2(COC(C)=O)CC[C@]3(C)[C@H](CC[C@@H]4[C@@]5(C)CC[C@H](OC(C)=O)C(C)(C)[C@@H]5CC[C@]43C)[C@@H]12 [betulin diacetate, Betulin Diacetate]",inhibition (release of virus from chronically infected cells),[6],20%
"C=C(C)C1CCC2(COC)CCC3(C)C(CCC4C5(C)CCC(OC)C(C)(C)C5CCC43C)C12 (stereo not shown) [betulin dimethyl ether, Betulin Dimethyl ether]",effect on total cell number or cell viability,[1],no effect on total cell number or cell viability
same,"anti-HIV-1 activity (HIV-1 gag (p24) antigen, OD units, FIG. 6)",[2],anti-HIV-1 activity superior to that previously disclosed in the art for other betulinol derivatives
"C=C(C)[C@@H]1CC[C@]2(C(=O)O)CC[C@]3(C)[C@H](CC[C@@H]4[C@@]5(C)CC[C@H](O)C(C)(C)[C@@H]5CC[C@]43C)[C@@H]12 [betulinic acid, Betulinic Acid]","cytotoxic activity, LD 50",[7],0.375 mg/mL
"C=C(C)C1CCC2(CO)CC[C@]3(C)[C@H](CC[C@@H]4[C@@]5(C)CCC(O)C(C)(C)[C@@H]5CC[C@]43C)C12 (stereo partly drawn) [betulinol, lup-20(29)-ene-3β, 28-diol]",inhibition (release of virus from chronically infected cells),[6],minimal effect
"C=C(C)[C@@H]1CC[C@]2(C=O)CC[C@]3(C)[C@H](CC[C@@H]4[C@@]5(C)CCC(=O)C(C)(C)[C@@H]5CC[C@]43C)[C@@H]12 [betulone aldehyde, Betulon Aldehyde]",inhibition (release of virus from chronically infected cells),[6],minimal effect
"C=C(C)C1CCC2(C(=O)O)CC[C@]3(C)[C@H](CC[C@@H]4[C@@]5(C)CCC(=O)C(C)(C)[C@@H]5CC[C@]43C)C12 (stereo partly shown) [betulonic acid, Betulonic Acid]",Observation,[8],Clear Solution
same,"inhibition in the HIV infection, AZT-resistant strain",[3]; day 5 (FIG. 14),44%
same,"inhibition in the HIV infection, AZT-resistant strain",[3]; day 8 (FIG. 15),increased further
same,Con. in culture medium containing 20% DMSO,[4],0.001 mol/L
same,amount of betulonic acid dissolved,"[4]; 3 mg in culture medium containing 10% FBS with 1% DMSO, supernatant after centrifugation",0.4 mg
same,Observation,"[9]; 1.0 mg, ethanol 220 μL, γ-globulin 1.48 mL, albumin 0.49 mL",Cloudy
same,Observation,"[9]; 1.3 mg, ethanol 280 μL, γ-globulin (27 mg/mL in PBS) 2.50 mL, albumin (42 mg/mL in PBS) 0 mL",Suspension
same,"cytotoxicity, interfering with the proliferation of cells",[10],cytotoxic
same,tolerability,[5],well tolerated
